Test results as given in patent US20110060026A1, “Indoles Active on CRTH2 Receptor” (priority 2008, published 2011).

Target: T1, CRTH2 receptor (Homo sapiens, UniProt Q9Y5Y4)
T1 construct: expressed in transfected cells; host or cells: HEK (human embryonic kidney) cells, membrane preparation
T1 sequence (Q9Y5Y4 1-395): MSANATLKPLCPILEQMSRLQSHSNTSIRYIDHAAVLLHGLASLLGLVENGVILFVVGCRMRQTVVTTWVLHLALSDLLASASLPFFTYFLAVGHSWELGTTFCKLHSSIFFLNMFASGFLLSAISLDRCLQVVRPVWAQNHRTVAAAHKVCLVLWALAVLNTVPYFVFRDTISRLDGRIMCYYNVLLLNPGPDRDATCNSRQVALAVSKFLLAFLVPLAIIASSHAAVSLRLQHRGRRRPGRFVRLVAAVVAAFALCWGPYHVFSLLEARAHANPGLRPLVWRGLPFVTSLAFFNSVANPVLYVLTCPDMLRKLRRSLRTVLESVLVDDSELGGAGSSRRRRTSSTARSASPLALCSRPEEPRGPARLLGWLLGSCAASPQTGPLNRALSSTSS
Test: CRTH2 radioligand binding assay ([3H]-PGD2 displacement, SPA)
Details: HEK cell membranes expressing the CRTH2 receptor, 1 nM [3H]-PGD2; Ki from IC50 by Cheng-Prusoff equation
Experimental: Compounds of the invention were tested using the following biological test method to determine their ability to displace PGD2 from the CRTH2 receptor.
CRTH2 Radioligand Binding Assay
The receptor binding assay is performed in a final volume of 200 μL binding buffer [10 mM BES (pH 7.4), 1 mM EDTA, 10 mM manganese chloride, 0.01% BSA] and 1 nM [^3H]-PGD2 (Amersham Biosciences UK Ltd). Ligands are added in assay buffer containing a constant amount of DMSO (1% by volume). Total binding is determined using 1% by volume of DMSO in assay buffer and non-specific binding is determined using 10 μM of unlabeled PGD2 (Sigma). Human embryonic kidney (HEK) cell membranes (3.5 μg) expressing the CRTH2 receptor are incubated with 1.5 mg wheatgerm agglutinin SPA beads and 1 nM [^3H]-PGD2 (Amersham Biosciences UK Ltd) and the mixture incubated for 3 hours at room temperature. Bound [^3H]-PGD2 is detected using a Microbeta TRILUX liquid scintillation counter (Perkin Elmer). Compound IC50 value is determined using a 6-point dose response curve in duplicate with a semi-log compound dilution series. IC50 calculations are performed using Excel and XLf it (Microsoft), and this value is used to determine a Ki value for the test compound using the Cheng-Prusoff equation.

Cc1c(CC(=O)O)c2cc(F)ccc2n1Cc1ccccc1S(=O)(=O)c1ccc(F)cc1 [Example 1, {5-fluoro-1-[2-(4-fluorobenzenesulfonyl)benzyl]-2-methyl-1H-indol-3-yl}acetic acid]
Ki: 66 nM
